Assay results from patent publication US20250122218A1, “MODULATORS OF CYSTIC FIBROSIS TRANSMEMBRANE CONDUCTANCE REGULATOR” (Vertex Pharmaceuticals Incorporated, priority 2022, published 2025).

target: T1, CFTR in F508del/MF-HBE cells (Homo sapiens, UniProt P13569, DEL508-508); assay: Ussing chamber assay of CFTR-mediated short-circuit currents (identification of potentiator compounds); type: cell-based; details: potentiator incubated 18-24 hours at 37° C. in combination with 10 μM corrector, in the presence of 20% human serum, CFTR-mediated ISC
T1 construct: human bronchial epithelial (HBE) cells derived from CF subjects heterozygous for F508del and a minimal function CFTR mutation; endogenous in cells; host or cells: primary human bronchial epithelial cells from CF subjects (F508del/MF-HBE)
T1 sequence (P13569 with tags, fused parts or gaps DEL508-508): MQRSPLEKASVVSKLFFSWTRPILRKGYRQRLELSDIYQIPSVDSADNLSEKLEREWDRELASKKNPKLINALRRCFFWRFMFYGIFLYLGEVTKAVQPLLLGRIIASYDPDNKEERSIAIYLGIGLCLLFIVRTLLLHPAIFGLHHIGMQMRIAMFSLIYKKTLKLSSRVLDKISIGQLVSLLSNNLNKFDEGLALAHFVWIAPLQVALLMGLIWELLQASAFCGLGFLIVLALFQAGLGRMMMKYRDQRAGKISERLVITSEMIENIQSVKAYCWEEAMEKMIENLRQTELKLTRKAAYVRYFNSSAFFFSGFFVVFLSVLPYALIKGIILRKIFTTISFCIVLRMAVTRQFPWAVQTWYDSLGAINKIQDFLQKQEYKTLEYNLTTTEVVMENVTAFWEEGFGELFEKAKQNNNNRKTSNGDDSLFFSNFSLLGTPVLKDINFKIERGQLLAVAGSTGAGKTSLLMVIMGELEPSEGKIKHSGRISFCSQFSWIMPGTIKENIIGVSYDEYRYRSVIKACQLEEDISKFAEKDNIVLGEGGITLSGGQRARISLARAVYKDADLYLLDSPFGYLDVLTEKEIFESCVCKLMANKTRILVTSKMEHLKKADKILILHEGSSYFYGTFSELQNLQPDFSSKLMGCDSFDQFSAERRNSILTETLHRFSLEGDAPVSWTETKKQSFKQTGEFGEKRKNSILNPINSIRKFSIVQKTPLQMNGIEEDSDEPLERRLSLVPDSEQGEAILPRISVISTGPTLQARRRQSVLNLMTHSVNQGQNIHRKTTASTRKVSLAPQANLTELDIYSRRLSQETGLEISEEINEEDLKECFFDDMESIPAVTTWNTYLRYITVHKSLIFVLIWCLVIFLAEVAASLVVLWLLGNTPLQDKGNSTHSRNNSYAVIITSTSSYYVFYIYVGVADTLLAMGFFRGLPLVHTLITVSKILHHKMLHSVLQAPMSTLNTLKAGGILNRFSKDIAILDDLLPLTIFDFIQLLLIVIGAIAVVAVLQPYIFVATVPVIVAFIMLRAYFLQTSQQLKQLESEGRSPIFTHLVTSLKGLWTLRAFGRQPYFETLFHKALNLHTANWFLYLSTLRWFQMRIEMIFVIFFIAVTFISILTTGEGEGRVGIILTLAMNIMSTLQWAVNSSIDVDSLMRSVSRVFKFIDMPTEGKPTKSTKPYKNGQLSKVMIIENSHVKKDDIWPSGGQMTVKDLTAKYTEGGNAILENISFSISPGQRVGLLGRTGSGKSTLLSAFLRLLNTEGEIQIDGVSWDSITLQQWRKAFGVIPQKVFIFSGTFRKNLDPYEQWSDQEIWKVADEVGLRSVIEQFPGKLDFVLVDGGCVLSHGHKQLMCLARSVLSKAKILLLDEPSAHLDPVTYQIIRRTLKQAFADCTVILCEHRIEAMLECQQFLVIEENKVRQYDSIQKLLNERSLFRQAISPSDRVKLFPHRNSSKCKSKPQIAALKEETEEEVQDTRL
Method in brief: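 Short-circuit current was measured in Ussing chambers at 37° C, Vhold 0 mV, 30 μM apical amiloride. CFTR current was defined as the forskolin (20 μM) response relative to the current remaining after BPO/GlyH-101/inhibitor 172 (20 μM each). Before recording, cells had 18-24 h exposure to test potentiators with 10 μM corrector compound in 20% human serum.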

| SMILES | EC50 |
| --- | --- |
| Nc1cc(C(F)(F)F)c2nc1-c1nnc(o1)[C@@](O)(C(F)(F)F)CCCCCN(Cc1cccc(-c3ccccc3)c1)C2=O [Compound 166, (6R)-17-amino-6-hydroxy-12-[(3-phenylphenyl)methyl]-6,15-bis (trifluoromethyl)-19-oxa-3,4,12,18-tetrazatricyclo [12.3.1.12,5] nonadeca-1(18),2,4,14,1 6-pentaen-13-one] | < 500 nM |
| Nc1cc(C(F)(F)F)c2nc1-c1nnc(o1)[C@@](O)(C(F)(F)F)CCCCCCC2=NO (single isomer, unassigned) [Compound 31] | < 500 nM |
| C[C@H]1C[C@H](c2ccc(CN3CCCCC[C@](O)(C(F)(F)F)C4=NN=C(O4)c4nc(c(C(F)(F)F)cc4N)C3=O)cc2)C1 [Compound 183, (6R)-17-amino-6-hydroxy-12-({4-[trans-3-methylcyclobutyl]phenyl}methyl)-6,15-bis (trifluoromethyl)-19-oxa-3,4,12,18-tetraazatricyclo [12.3.1.12,5] nonadeca-1(18),2,4,14,1 6-pentaen-13-one] | < 500 nM |
| CC(C)(c1cccc(CN2CCCCC[C@](O)(C(F)(F)F)C3=NN=C(O3)c3nc(c(C(F)(F)F)cc3N)C2=O)c1)C(F)(F)F [Compound 222, (6R)-17-amino-6-hydroxy-12-[[3-(2,2,2-trifluoro-1,1-dimethyl-ethyl)phenyl]methyl]-6,15-bis(trifluoromethyl)-19-oxa-3,4,12,18-tetrazatricyclo [12.3.1.12,5] nonadeca-1(18),2,4,14,16-pentaen-13-one] | < 500 nM |
| CC1(C)CCCCC[C@](O)(C(F)(F)F)C2=NN=C(O2)c2nc(c(C(F)(F)F)cc2N)C1 [Compound 50, (6R)-17-amino-12,12-dimethyl-6,15-bis(trifluoromethyl)-19-oxa-3,4,18-triazatricyclo[12.3.1.12,5]nonadeca-1(18),2,4,14,16-pentaen-6-ol] | < 500 nM |
| CCCN1CCCCC[C@](O)(C(F)(F)F)C2=NN=C(O2)c2nc(c(C(F)(F)F)cc2N)C1=O [Compound 82, (6R)-17-Amino-6-hydroxy-12-propyl-6,15-bis (trifluoromethyl)-19-oxa-3,4,12,18-tetrazatricyclo [12.3.1.12,5] nonadeca-1(18),2,4,14,1 6-pentaen-13-one] | < 500 nM |
| Nc1cc(C(F)(F)F)c2nc1-c1nnc(o1)C(O)(C(F)(F)F)CCCCCCC2(O)C(F)(F)F (single isomer, unassigned) [Compound 26, 17-amino-6,13,15-tris(trifluoromethyl)-19-oxa-3,4,18-triazatricyclo[12.3.1.12,5]nonadeca-1(18),2,4,14,16-pentaene-6,13-diol] | < 500 nM |
| Nc1cc(C(F)(F)F)c2nc1-c1nnc(o1)[C@@](O)(C(F)(F)F)CCCCCN(C1CC3(C1)CN(C(=O)C1CC1)C3)C2=O [Compound 191, (6R)-17-amino-12-[2-(cyclopropanecarbonyl)-2-azaspiro[3.3]heptan-6-yl]-6-hydroxy-6,15-bis(trifluoromethyl)-19-oxa-3,4,12,18-tetrazatricyclo[12.3.1.12,5]nonadeca-1(18),2,4,14,16-pentaen-13-one] | > 1000 nM |
| Nc1cc(C(F)(F)F)c2nc1-c1nnc(o1)[C@@](O)(C(F)(F)F)CC(F)(F)CCCCC2=O [Compound 44, (6R)-17-amino-8,8-difluoro-6-hydroxy-6,15-bis(trifluoromethyl)-19-oxa-3,4,18-triazatricyclo[12.3.1.12,5]nonadeca-1(18),2,4,14,16-pentaen-13-one] | < 500 nM |
| Nc1cc(C(F)(F)F)c2nc1-c1nnc(o1)[C@@](O)(C(F)(F)F)CCCC(F)(F)CCC2=O [Compound 38, (6R)-17-amino-10,10-difluoro-6-hydroxy-6,15-bis(trifluoromethyl)-19-oxa-3,4,18-triazatricyclo[12.3.1.12,5]nonadeca-1(18),2,4,14,16-pentaen-13-one] | < 500 nM |
| Nc1cc(C(F)(F)F)c2nc1-c1nnc(o1)[C@](O)(C(F)(F)F)CCCCCNC2=O [Compound 189, (6S)-17-amino-6-hydroxy-6,15-bis(trifluoromethyl)-19-oxa-3,4,12,18-tetrazatricyclo[12.3.1.12,5]nonadeca-1(18),2,4,14,16-pentaen-13-one] | > 1000 nM |
| Nc1cc(C(F)(F)F)c2nc1-c1nnc(o1)[C@@](O)(C(F)(F)F)CCCCCN(CC1CC13CC3)C2=O (stereo partly drawn) [Compound 252, (6R)-17-amino-6-hydroxy-12-(spiro[2.2]pentan-2-ylmethyl)-6,15-bis(trifluoromethyl)-19-oxa-3,4,12,18-tetrazatricyclo [12.3.1.12,5] nonadeca-1(18),2,4,14,16-pentaen-13-one] | < 500 nM |
| Nc1cc(C(F)(F)F)c2nc1-c1nnc(o1)[C@@](O)(C(F)(F)F)CCCCCN(Cc1ccc(OC(F)(F)F)c(F)c1)C2=O [Compound 265, (6R)-17-amino-12-[[3-fluoro-4-(trifluoromethoxy)phenyl]methyl]-6-hydroxy-6,15-bis(trifluoromethyl)-19-oxa-3,4,12,18-tetrazatricyclo [12.3.1.12,5] nonadeca-1(18),2,4,14,16-pentaen-13-one] | < 500 nM |
| CC1CCCCCCC(O)(C(F)(F)F)C2=NN=C(O2)c2nc1c(C(F)(F)F)cc2N (single isomer, unassigned) [Compound 16, 17-Amino-13-methyl-6,15-bis(trifluoromethyl)-19-oxa-3,4,18-triazatricyclo[12.3.1.12,5]nonadeca-1(18),2,4,14,16-pentaen-6-ol] | < 500 nM |
| CN1CCCCCC(O)(C(F)(F)F)C2=NN=C(O2)c2nc(c(C(F)(F)F)cc2N)C1=O (single isomer, unassigned) [Compound 73, 17-amino-6-hydroxy-12-methyl-6,15-bis(trifluoromethyl)-19-oxa-3,4,12,18-tetrazatricyclo[12.3.1.12,5]nonadeca-1(18),2,4,14,16-pentaen-13-one] | > 1000 nM |
| CCCc1ccc(CN2CCCCC[C@](O)(C(F)(F)F)C3=NN=C(O3)c3nc(c(C(F)(F)F)cc3N)C2=O)cc1 [Compound 162, (6R)-17-amino-6-hydroxy-12-[(4-propylphenyl)methyl]-6,15-bis (trifluoromethyl)-19-oxa-3,4,12,18-tetrazatricyclo [12.3.1.12,5] nonadeca-1(18),2,4,14,1 6-pentaen-13-one] | < 500 nM |
| Nc1cc(C(F)(F)F)c2nc1-c1nnc(o1)[C@@](O)(C(F)(F)F)CCCCCN(Cc1ccnc(OC3CCC3)c1)C2=O [Compound 270, (6R)-17-amino-12-[[2-(cyclobutoxy)-4-pyridyl]methyl]-6-hydroxy-6,15-bis(trifluoromethyl)-19-oxa-3,4,12,18-tetrazatricyclo [12.3.1.12,5] nonadeca-1(18),2,4,14,16-pentaen-13-one] | < 500 nM |
| CC(=O)N1CCCCCC(O)(C(F)(F)F)C2=NN=C(O2)c2nc(c(C(F)(F)F)cc2N)C1 (single isomer, unassigned) [Compound 20, 1-[17-amino-6-hydroxy-6,15-bis(trifluoromethyl)-19-oxa-3,4,12,18-tetrazatricyclo[12.3.1.12,5]nonadeca-1(18),2,4,14,16-pentaen-12-yl]ethanone] | < 500 nM |
| Nc1cc(C(F)(F)F)c2nc1-c1nnc(o1)[C@@](O)(C(F)(F)F)CCCCCN(Cc1ccc(OC(F)(F)F)cc1F)C2=O [Compound 159, (6R)-17-amino-12-[[2-fluoro-4-(trifluoromethoxy)phenyl]methyl]-6-hydroxy-6,15-bis (trifluoromethyl)-19-oxa-3,4,12,18-tetrazatricyclo [12.3.1.12,5] nonadeca-1(18),2,4,14,1 6-pentaen-13-one] | < 500 nM |
| Nc1cc(C(F)(F)F)c2nc1-c1nnc(o1)[C@@](O)(C(F)(F)F)CCCCCN(C1CC3(CNC3)C1)C2=O [Compound 99, (6R)-17-Amino-12-(2-azaspiro[3.3]heptan-6-yl)-6-hydroxy-6,15-bis (trifluoromethyl)-19-oxa-3,4,12,18-tetrazatricyclo [12.3.1.12,5] nonadeca-1(18),2,4,14,1 6-pentaen-13-one] | > 1000 nM |
| CC(C)(C)c1ccc(C2(N3CCCCCC(O)(C(F)(F)F)C4=NN=C(O4)c4nc(c(C(F)(F)F)cc4N)C3=O)CC2)cc1 (single isomer, unassigned) [Compound 227, 17-amino-12-[1-(4-tert-butylphenyl)cyclo-propyl]-6-hydroxy-6,15-bis(trifluoromethyl)-19-oxa-3,4,12,18-tetrazatricyclo [12.3.1.12,5] nonadeca-1(18),2,4,14,16-pentaen-13-one] | < 500 nM |
| CC(C)(C1CC1)N1CCCCC[C@](O)(C(F)(F)F)C2=NN=C(O2)c2nc(c(C(F)(F)F)cc2N)C1=O [Compound 218, (6R)-17-amino-12-(1-cyclopropyl-1-methyl-ethyl)-6-hydroxy-6,15-bis(trifluoromethyl)-19-oxa-3,4,12,18-tetrazatricyclo [12.3.1.12,5] nonadeca-1(18),2,4,14,16-pentaen-13-one] | < 500 nM |
| Cc1cc(CN2CCCCC[C@](O)(C(F)(F)F)C3=NN=C(O3)c3nc(c(C(F)(F)F)cc3N)C2=O)ccc1OC(F)(F)F [Compound 165] | < 500 nM |
| Nc1cc(C(F)(F)F)c2nc1-c1nnc(o1)C(O)(C(F)(F)F)CCC(=O)CCCC2=O (single isomer, unassigned) [Compound 35, 17-amino-6-hydroxy-6,15-bis(trifluoromethyl)-19-oxa-3,4,18-triazatricyclo[12.3.1.12,5]nonadeca-1(18),2,4,14,16-pentaene-9,13-dione] | > 1000 nM |
| Nc1cc(C(F)(F)F)c2nc1-c1nnc(o1)[C@@](O)(C(F)(F)F)CCCCCN(Cc1ccc(N3CCCCC3)nc1)C2=O [Compound 187, (6R)-17-amino-6-hydroxy-12-[[6-(1-piperidyl)-3-pyridyl]methyl]-6,15-bis (trifluoromethyl)-19-oxa-3,4,12,18-tetrazatricyclo [12.3.1.12,5] nonadeca-1(18),2,4,14,1 6-pentaen-13-one] | < 500 nM |
